Assay results: patent US12351580B2, “NLRP3 modulators” (Innate Tumor Immunity, Inc., priority 2017, dated 2025)
Counter-ions that a name gives are not always drawn.

What follows are compounds tested against T1, hNLRP3 (Homo sapiens, UniProt Q96P20) (assay: Measurement of IL-1β production in PMA-differentiated THP-1 cells (hNLRP3 agonist; ELISA, alternative and hTRF procedures)).
T1 construct: THP-1 cells were purchased from the American Type Culture Collection; host or cells: THP-1 cells, PMA-differentiated
T1 sequence (Q96P20 whole entry): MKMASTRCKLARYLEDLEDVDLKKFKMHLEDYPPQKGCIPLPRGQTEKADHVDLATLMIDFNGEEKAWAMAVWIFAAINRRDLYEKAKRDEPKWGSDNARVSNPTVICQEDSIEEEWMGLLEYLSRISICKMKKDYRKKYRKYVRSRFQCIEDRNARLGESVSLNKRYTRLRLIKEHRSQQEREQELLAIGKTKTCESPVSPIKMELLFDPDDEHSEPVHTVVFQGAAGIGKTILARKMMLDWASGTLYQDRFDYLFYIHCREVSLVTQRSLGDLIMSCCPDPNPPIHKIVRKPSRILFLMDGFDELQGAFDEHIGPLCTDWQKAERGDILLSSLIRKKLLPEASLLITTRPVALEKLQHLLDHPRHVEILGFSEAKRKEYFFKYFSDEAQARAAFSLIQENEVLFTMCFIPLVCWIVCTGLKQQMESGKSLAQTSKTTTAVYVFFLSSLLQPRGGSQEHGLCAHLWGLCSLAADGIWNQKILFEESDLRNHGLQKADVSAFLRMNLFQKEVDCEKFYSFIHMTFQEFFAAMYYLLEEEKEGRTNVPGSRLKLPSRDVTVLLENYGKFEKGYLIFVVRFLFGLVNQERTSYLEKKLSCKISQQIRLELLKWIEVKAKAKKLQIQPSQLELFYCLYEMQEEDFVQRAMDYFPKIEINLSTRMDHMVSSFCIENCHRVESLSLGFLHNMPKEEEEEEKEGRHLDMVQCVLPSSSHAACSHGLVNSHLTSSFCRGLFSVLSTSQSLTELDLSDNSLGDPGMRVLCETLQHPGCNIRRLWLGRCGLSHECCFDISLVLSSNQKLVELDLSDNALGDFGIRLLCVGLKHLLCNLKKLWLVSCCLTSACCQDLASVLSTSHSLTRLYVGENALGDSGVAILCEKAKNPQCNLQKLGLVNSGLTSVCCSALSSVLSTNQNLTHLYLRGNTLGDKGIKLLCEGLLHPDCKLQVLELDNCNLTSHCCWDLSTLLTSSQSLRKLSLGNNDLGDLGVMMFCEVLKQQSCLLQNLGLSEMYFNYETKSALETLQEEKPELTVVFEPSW
Type: cell-based
In short: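 PMA-differentiated THP-1 cells (PMA […] 24 h, 20 μg/ml overnight, or 50 ng/ml overnight, by procedure) replated in RPMI with 2% FBS and exposed to compound (e.g. 100–0.1 μM, 1% DMSO; hTRF format top 10 μM) for 4 h, 2 h, or 2 h respectively. Supernatant IL-1β measured by ELISA, or by hTRF with antibodies diluted 1:40.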
For CCNCc1nc2c(N)nc3cc(-c4cc[nH]n4)ccc3c2[nH]1 [Compound 101, 2-[(Ethylamino)methyl]-7-(1H-pyrazol-3-yl)-1H-imidazo[4,5-c]quinolin-4-amine hydrochloride], the EC50 was 270 nM. CC(=O)N(C)Cc1nc2c(N)nc3cc(-n4cccn4)ccc3c2[nH]1 [Compound 102, N-((4-Amino-7-(1H-pyrazol-1-yl)-1H-imidazo[4,5-c]quinolin-2-yl)methyl)-N-methylacetamide] gave an EC50 of 1600 nM. For CN(Cc1nc2c(N)nc3cc(-n4cccn4)ccc3c2[nH]1)S(C)(=O)=O [Compound 119], the EC50 was 1380 nM. Compound CN(Cc1nc2c(N)nc3cc(-c4cc[nH]n4)ccc3c2[nH]1)C(=O)C1CC1 [Compound 120] has an EC50 of 1690 nM. CCN(Cc1nc2c(N)nc3cc(-c4cc[nH]n4)ccc3c2n1C)C(C)=O [Compound 121] gave an EC50 of 1820 nM. In the case of CCC(=O)N(C)Cc1nc2c(N)nc3cc(-c4cc[nH]n4)ccc3c2[nH]1 [Compound 122], the EC50 is reported as 1400 nM. In the case of CCN(Cc1nc2c(N)nc3cc(-c4cc[nH]n4)ccc3c2[nH]1)S(C)(=O)=O [Compound 124], the EC50 is reported as 2400 nM. In the case of CCC(=O)N(CC)Cc1nc2c(N)nc3cc(-c4cc[nH]n4)ccc3c2[nH]1 [Compound 125], the EC50 is reported as 2100 nM. In the case of CCN(Cc1nc2c(N)nc3cc(-c4cc[nH]n4)ccc3c2[nH]1)C(=O)NC [Compound 128], the EC50 is reported as 2900 nM. In the case of CC(=O)N(C)Cc1nc2c(N)nc3cc(-c4cc[nH]n4)ccc3c2[nH]1 [Compound 129], the EC50 is reported as 3600 nM. For CCN(Cc1nc2c(N)nc3cc(-n4cccn4)ccc3c2[nH]1)C(N)=O [Compound 130], the EC50 was 3300 nM. With NCc1nc2c(N)nc3cc(-c4cc[nH]n4)ccc3c2[nH]1 [Compound 131] the EC50 was 3500 nM. CCN(Cc1nc2c(N)nc3cc(-n4nccn4)ccc3c2[nH]1)C(C)=O [Compound 132] gave an EC50 of 3500 nM. Compound CC(c1nc2c(N)nc3cc(-c4cccnc4)ccc3c2[nH]1)N1CCCC1=O (stereo not shown) [Compound 138] has an EC50 of 6700 nM. For CC(=O)N(Cc1nc2c(N)nc3cc(-c4cc[nH]n4)ccc3c2[nH]1)C(C)C [Compound 140], the EC50 was 7300 nM. Compound Nc1nc2ccc(Cl)cc2c2[nH]c(CN3CCCC3=O)nc12 [Compound 141] has an EC50 of 9000 nM. CC(C)(C)OC(=O)NCc1nc2c(N)nc3cc(-c4cc[nH]n4)ccc3c2[nH]1 [Compound 142] gave an EC50 of 9100 nM. Compound Nc1nc2cc(Cl)ccc2c2[nH]c(CN3CCCC3=O)nc12 [Compound 143] has an EC50 of 9400 nM. Nc1nc2cc(-c3ccc(Cl)nc3)ccc2c2[nH]c(CN3CCCC3=O)nc12 [Compound 153] showed an EC50 of 12000 nM. Compound CCNCc1nc2c(N)nc3cc(OC)ccc3c2[nH]1 [Compound 154] has an EC50 of 16100 nM. For CCN(Cc1nc2c(N)nc3cc(-c4ncc[nH]4)ccc3c2[nH]1)C(=O)OC(C)(C)C [Compound 155], the EC50 was 17400 nM. Compound Nc1nc2cc(-n3ncc4ccccc43)ccc2c2[nH]c(CN3CCCC3=O)nc12 [Compound 157] has an EC50 of 23400 nM. Compound CCN(Cc1nc2c(N)nc3cc(OC)ccc3c2[nH]1)C(C)=O [Compound 158, N-((4-Amino-7-methoxy-1H-imidazo[4,5-c]quinolin-2-yl)methyl)-N-ethylacetamide] has an EC50 of 24500 nM. With CCN(Cc1nc2c(N)nc3cc(Cl)c(Cl)cc3c2[nH]1)C(C)=O [Compound 159] the EC50 was 25900 nM. CCNCc1nc2c(N)nc3cc(-c4ncc[nH]4)ccc3c2[nH]1 [Compound 162] was tested, and the EC50 was 42000 nM. CCN(Cc1nc2c(N)nc3cc(-c4cc[nH]n4)ccc3c2[nH]1)CC(C)C [Compound 453, 2-{[ethyl(2-methylpropyl)amino]methyl}-7-(1H-pyrazol-3-yl)-1H-imidazo[4,5-c]quinolin-4-amine] was tested, and the EC50 was 710 nM. CCN(CC)C(=O)N(CC)Cc1nc2c(N)nc3cc(-c4cc[nH]n4)ccc3c2[nH]1 [Compound 454, 1-{[4-amino-7-(1H-pyrazol-3-yl)-1H-imidazo[4,5-c]quinolin-2-yl]methyl}-1,3,3-triethylurea] gave an EC50 of 740 nM. CCN(Cc1nc2c(N)nc3cc(-c4cc[nH]n4)ccc3c2[nH]1)C(=O)N1CCOCC1 [Compound 455, N-{[4-amino-7-(1H-pyrazol-3-yl)-1H-imidazo[4,5-c]quinolin-2-yl]methyl}-N-ethylmorpholine-4-carboxamide] gave an EC50 of 2000 nM. In the case of CCN(Cc1nc2c(N)nc3cc(-c4cc[nH]n4)ccc3c2[nH]1)C(=O)NC(C)(C)C [Compound 456, 1-{[4-amino-7-(1H-pyrazol-3-yl)-1H-imidazo[4,5-c]quinolin-2-yl]methyl}-3-tert-butyl-1-ethylurea], the EC50 is reported as 2200 nM. CCNC(=O)N(CC)Cc1nc2c(N)nc3cc(-c4cc[nH]n4)ccc3c2[nH]1 [Compound 457, 1-{[4-amino-7-(1H-pyrazol-3-yl)-1H-imidazo[4,5-c]quinolin-2-yl]methyl}-1,3-diethylurea] was tested, and the EC50 was 6600 nM. For CCN(Cc1nc2c(N)nc3cc(-c4cc[nH]n4)ccc3c2[nH]1)S(=O)(=O)N(C)C [Compound 458, 2-{[(dimethylsulfamoyl)(ethyl)amino]methyl}-7-(1H-pyrazol-3-yl)-1H-imidazo[4,5-c]quinolin-4-amine], the EC50 was 2100 nM. For CCN(Cc1nc2c(N)nc3cc(-c4cc[nH]n4)ccc3c2[nH]1)S(=O)(=O)C(C)C [Compound 459, N-{[4-amino-7-(1H-pyrazol-3-yl)-1H-imidazo[4,5-c]quinolin-2-yl]methyl}-N-ethylpropane-2-sulfonamide], the EC50 was 6700 nM. CCCS(=O)(=O)N(CC)Cc1nc2c(N)nc3cc(-c4cc[nH]n4)ccc3c2[nH]1 [Compound 460, N-{[4-amino-7-(1H-pyrazol-3-yl)-1H-imidazo[4,5-c]quinolin-2-yl]methyl}-N-ethylpropane-1-sulfonamide] was tested, and the EC50 was 1500 nM. CCNCc1nc2c(N)nc3cc(-c4ccn[nH]4)ccc3c2n1CCO [Compound 462, 2-[4-Amino-2-[(ethylamino)methyl]-7-(1H-pyrazol-5-yl)-1H-imidazo[4,5-c]quinolin-1-yl]ethan-1-ol] gave an EC50 of 5500 nM. CCn1c(CN2CCCC2=O)nc2c(N)nc3cc(-c4cccs4)ccc3c21 [Compound 463, 1-{[4-amino-1-ethyl-7-(thiophen-2-yl)-1H-imidazo[4,5-c]quinolin-2-yl]methyl}pyrrolidin-2-one] showed an EC50 of 220 nM. CCNCc1nc2c(N)nc3cc(-c4ccn[nH]4)ccc3c2n1CC [Compound 464, 1-ethyl-2-[(ethylamino)methyl]-7-(1H-pyrazol-5-yl)-1H-imidazo[4,5-c]quinolin-4-amine] showed an EC50 of 240 nM. CCn1c(CN2CCCC2=O)nc2c(N)nc3cc(-n4cccn4)ccc3c21 [Compound 465, 1-{[4-amino-1-ethyl-7-(1H-pyrazol-1-yl)-1H-imidazo[4,5-c]quinolin-2-yl]methyl}pyrrolidin-2-one] was tested, and the EC50 was 1000 nM. With CCn1c(CN2CCCC2=O)nc2c(N)nc3cc(-c4ccn[nH]4)ccc3c21 [Compound 466, 1-{[4-amino-1-ethyl-7-(1H-pyrazol-5-yl)-1H-imidazo[4,5-c]quinolin-2-yl]methyl}pyrrolidin-2-one] the EC50 was 1100 nM. Compound CCNCc1nc2c(N)nc3cc(-n4cccn4)ccc3c2n1CC [Compound 467, 1-ethyl-2-((ethylamino)methyl)-7-(1H-pyrazol-1-yl)-1H-imidazo[4,5-c]quinolin-4-amine] has an EC50 of 1200 nM. Compound CCNCc1nc2c(N)nc3cc(-c4cccs4)ccc3c2n1CC [Compound 468, 1-ethyl-2-[(ethylamino)methyl]-7-(thiophen-2-yl)-1H-imidazo[4,5-c]quinolin-4-amine] has an EC50 of 2100 nM. Nc1nc2cc(-c3cccs3)ccc2c2c1nc(CN1CCCC1=O)n2CCO [Compound 469, 1-{[4-amino-1-(2-hydroxyethyl)-7-(thiophen-2-yl)-1H-imidazo[4,5-c]quinolin-2-yl]methyl}pyrrolidin-2-one] gave an EC50 of 670 nM. Compound CCC(=O)N(CC)Cc1nc2c(N)nc3cc(-c4cccs4)ccc3c2n1CCO [Compound 470, N-{[4-amino-1-(2-hydroxyethyl)-7-(thiophen-2-yl)-1H-imidazo[4,5-c]quinolin-2-yl]methyl}-N-ethylpropanamide] has an EC50 of 690 nM. Compound CCNCc1nc2c(N)nc3cc(-c4cccs4)ccc3c2n1CCO [Compound 471, 2-{4-amino-2-[(ethylamino)methyl]-7-(thiophen-2-yl)-1H-imidazo[4,5-c]quinolin-1-yl}ethan-1-ol] has an EC50 of 1200 nM. CCN(Cc1nc2c(N)nc3cc(-c4cccs4)ccc3c2n1CC)C(C)=O [Compound 472, N-{[4-amino-1-ethyl-7-(thiophen-2-yl)-1H-imidazo[4,5-c]quinolin-2-yl]methyl}-N-ethylacetamide] was tested, and the EC50 was 430 nM. CCC(=O)N(CC)Cc1nc2c(N)nc3cc(-c4ccn[nH]4)ccc3c2n1CC [Compound 473, N-{[4-amino-1-ethyl-7-(1H-pyrazol-5-yl)-1H-imidazo[4,5-c]quinolin-2-yl]methyl}-N-ethylpropanamide] was tested, and the EC50 was 220 nM. CCN(Cc1nc2c(N)nc3cc(-c4ccn[nH]4)ccc3c2n1CC)C(C)=O [Compound 474, N-{[4-amino-1-ethyl-7-(1H-pyrazol-5-yl)-1H-imidazo[4,5-c]quinolin-2-yl]methyl}-N-ethylacetamide] was tested, and the EC50 was 1200 nM. In the case of CCC(=O)N(CC)Cc1nc2c(N)nc3cc(-c4ccn[nH]4)ccc3c2n1CCO [Compound 475, N-{[4-amino-1-(2-hydroxyethyl)-7-(1H-pyrazol-5-yl)-1H-imidazo[4,5-c]quinolin-2-yl]methyl}-N-ethylpropanamide], the EC50 is reported as 23000 nM. CCN(Cc1nc2c(N)nc3cc(-n4cccn4)ccc3c2n1CCO)C(C)=O [Compound 476, N-{[4-amino-1-(2-hydroxyethyl)-7-(1H-pyrazol-1-yl)-1H-imidazo[4,5-c]quinolin-2-yl]methyl}-N-ethylacetamide] showed an EC50 of 6100 nM. Work on CCNCc1nc2c(N)nc3cc(-n4cccn4)ccc3c2n1CCO [Compound 477, 2-[4-amino-2-[(ethylamino)methyl]-7-(1H-pyrazol-1-yl)-1H-imidazo[4,5-c]quinolin-l-yl]ethan-1-ol] yielded an EC50 of 6300 nM.
